According to PMC9763333, “In vitro characterization of immune modulating drug-eluting immunobeads towards transarterial embolization in cancer” (Scientific Reports, 2022):
Where “and” joins values, the source holds several entries; their conditions need not be identical. Equal values may be shown once. Entries after “also recorded” stand apart in the source; their conditions may differ. Where a name gives a salt, the structure may show the parent alone.

How the values were obtained:
[1] = Drug solubilization by salt formation in acid; type: physicochemical; details: for pH at which each drug dissolved for loading: T in °C in parentheses in the cell (20.1 or 21.1)
Method in brief: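 Drug base suspended in water and titrated with 0.1 N HCl until dissolved, at a final 2.5 mg/mL; solution lyophilized to the hydrochloride salt or used directly for DC Bead LUMI loading. GS-9620 and its decomposition product analyzed by C8 reversed-phase HPLC (UV 230 nm) and LC/MS.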

[2] = Drug loading into DC Bead LUMI; type: physicochemical; details: for Relative percent drug loaded in DC Bead LUMI over time / Maximum drug loaded (Triplicate), %: single replicates; for equivalent of drug loaded to sulfonated bead / Maximum drug loaded: mean ± SD; for Maximum drug loaded: n = 3, base form except Dox (salt form); for Drug: sulfonate: molar ratio at maximum loading; for Theoretical maximum loading level based on SO3− contents: per mL DC Bead LUMI, assuming 1:1 drug to sulfonate
Method in brief: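 Loading done in triplicate; amount loaded = initial drug in loading solution minus drug remaining and cumulative drug withdrawn for sampling. Maximum loading taken when loading-solution concentration stopped changing, before washing; relative % loading expressed on a molar basis against available SO3^- ions, mean ± SD.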

[3] = cited from earlier work
[4] = Drug release from DC Bead LUMI in saline; type: physicochemical; details: for percent drug eluted from DC Bead LUMI / drug eluted from DC Bead LUMI: saline, single replicates; for percent drug eluted from DC Bead LUMI: percent of drug loaded; for release behaviour in saline: DC Bead LUMI
Method in brief: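 Beads loaded with drug (62.5 µL of DC Bead LUMI) were placed in 50 mL of saline (0.9 mg/mL, pH 7.4) and rocked upright at 37 °C at speed setting 10 (70 rpm). At each sampling time, 1 mL of medium was taken for drug quantification and replaced with 1 mL of fresh saline pre-warmed to 37 °C. Cumulative release accounted for drug removed in earlier samples, and the 50 mL volume kept sink conditions.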

[5] = design: method as in PMID 17483878; details: cited from earlier work
[6] = Drug loading into LC Bead; type: physicochemical; details: per 1 mL LC Bead
Protocol: Drug loading was performed in triplicate as previously reported[45] with slight modifications. Briefly, 1.3 molar equivalent of each drug was mixed with one molar equivalent of sulfonate group of DC Bead LUMI or LC Bead. The drug-bead mixture was agitated with upright rocking motion at a set maximum rocking speed of 10 which corresponds to 70 rpm, for 144 h at ambient temperature (Ward's® Rotating Mixers, VWR, Bridgeport, NJ). At specified time points (5, 15, 30 and 45 min and then hourly for eight hours followed by 24, 48, 72 and 144 h) a 10 µL aliquot was withdrawn from the loading solution to quantify drug loading based on the change in concentration over time. […] The concentration of drug in each aliquot of loading solution at each time point was quantified by HPLC as described above using a linear standard curve obtained from solutions of known concentration of each drug (7.8–125 μg/mL) versus the detector response as area under the curve. The amount of drug loaded at the specified time points was calculated by subtracting the amount of drug remaining from the initial amount of drug in the loading solution and the cumulative amount of drug withdrawn for sampling. The maximum drug loaded in the beads was calculated once no further change in the concentration in the loading solution could be measured and before washing the beads. […]

[7] = design: method as in PMID 28188808; details: 0.065 mmol Dox per milliliter of beads, constant agitation, depending on bead size; cited from earlier work

SMILES: COc1nc(OCc2cccc(-c3ccccc3)c2C)ccc1CNCCNC(C)=O [BMS-202]
- solubilization upon addition of 0.1 N HCl ([1]; 0.1 N HCl, deionized water): did not solubilize
- pH at which each drug dissolved for loading [1]: 2.11 (20.1)
- Relative percent drug loaded in DC Bead LUMI over time ([2]; 5 min): 36.8467% and 31.5632% and 21.322%
- Relative percent drug loaded in DC Bead LUMI over time ([2]; 15 min): 30.3231% and 39.2476% and 47.138%
- Relative percent drug loaded in DC Bead LUMI over time ([2]; 30 min): 47.9681% and 46.426% and 44.5676%
- Relative percent drug loaded in DC Bead LUMI over time ([2]; 45 min): 56.9526% and 51.0915% and 54.8687%
- Relative percent drug loaded in DC Bead LUMI over time ([2]; 60 min): 63.8406% and 58.0947% and 63.6687%
- Relative percent drug loaded in DC Bead LUMI over time ([2]; 120 min): 85.531% and 84.4265% and 85.0145%
- Relative percent drug loaded in DC Bead LUMI over time ([2]; 180 min): 98.296% and 98.7957% and 94.8002%
- Relative percent drug loaded in DC Bead LUMI over time ([2]; 240 min): 106.342% and 112.145% and 106.321%
- Relative percent drug loaded in DC Bead LUMI over time ([2]; 300 min): 111.107% and 116.727% and 112.613%
- Relative percent drug loaded in DC Bead LUMI over time ([2]; 360 min): 115.109% and 120.479% and 108.292%
- Relative percent drug loaded in DC Bead LUMI over time ([2]; 420 min): 117.263% and 122.293% and 119.836%
- Relative percent drug loaded in DC Bead LUMI over time ([2]; 480 min): 118.462% and 124.442% and 121.713%
- Relative percent drug loaded in DC Bead LUMI over time ([2]; 1440 min): 121.282% and 124.78% and 117.021%
- Relative percent drug loaded in DC Bead LUMI over time ([2]; 2880 min): 119.234% and 124.78% and 122.668%
- Relative percent drug loaded in DC Bead LUMI over time ([2]; 4320 min): 118.18% and 124.96% and 121.21%
- Relative percent drug loaded in DC Bead LUMI over time ([2]; 8640 min): 119.5% and 124.96% and 122.329%
- drug loaded above the predicted capacity of the bead ([2]; DC Bead LUMI): approximately 23%
- loading behaviour ([2]; DC Bead LUMI): slower loading
- Relative percent drug loaded (maximum, percent of SO3− available on a molar basis) ([2]; DC Bead LUMI, mean (n = 3), listed as BMS-200): 122.93%
- equivalent of drug loaded to sulfonated bead ([2]; DC Bead LUMI): 0.35 ± 0.01 mM drug/ml beads
- Maximum drug loaded ([2]; DC Bead LUMI): 148.05 ± 2.24 mg drug/ml beads
- Maximum drug loaded (Triplicate), % ([2]; DC Bead LUMI, listed as BMS-200): 121.282% and 124.83% and 122.668%
- Drug: sulfonate ([2]; DC Bead LUMI): 1.223
- Theoretical maximum loading level based on SO3− contents [2]: 120.40 mg and 120.4 mg
- pKa (literature) [3]: 7.74 (literature) [54]
- percent drug eluted from DC Bead LUMI ([4]; 5 min): 2.472% and 2.4176% and 2.385%
- drug eluted from DC Bead LUMI ([4]; 5 min): 8.513 µmol and 8.629 µmol and 8.378 µmol
- percent drug eluted from DC Bead LUMI ([4]; 15 min): 2.589% and 2.639% and 2.416%
- drug eluted from DC Bead LUMI ([4]; 15 min): 8.915 µmol and 9.4174 µmol and 8.488 µmol
- percent drug eluted from DC Bead LUMI ([4]; 30 min): 2.762% and 2.728% and 2.934%
- drug eluted from DC Bead LUMI ([4]; 30 min): 9.513 µmol and 9.737 µmol and 10.3104 µmol
- percent drug eluted from DC Bead LUMI ([4]; 45 min): 3.33% and 2.98% and 3.1337%
- drug eluted from DC Bead LUMI ([4]; 45 min): 11.4676 µmol and 10.637 µmol and 11.0105 µmol
- percent drug eluted from DC Bead LUMI ([4]; 60 min): 3.248% and 3.3497% and 3.385%
- drug eluted from DC Bead LUMI ([4]; 60 min): 11.1858 µmol and 11.9555 µmol and 11.8939 µmol
- percent drug eluted from DC Bead LUMI ([4]; 120 min): 4.556% and 3.526% and 4.046%
- drug eluted from DC Bead LUMI ([4]; 120 min): 15.688 µmol and 12.584 µmol and 14.2155 µmol
- percent drug eluted from DC Bead LUMI ([4]; 180 min): 5.055% and 4.61% and 4.461%
- drug eluted from DC Bead LUMI ([4]; 180 min): 17.4074 µmol and 16.4551 µmol and 15.6742 µmol
- percent drug eluted from DC Bead LUMI ([4]; 240 min): 5.272% and 4.993% and 5.201%
- drug eluted from DC Bead LUMI ([4]; 240 min): 18.1541 µmol and 17.8191 µmol and 18.2734 µmol
- percent drug eluted from DC Bead LUMI ([4]; 300 min): 5.575% and 5.37% and 5.345%
- drug eluted from DC Bead LUMI ([4]; 300 min): 19.198 µmol and 19.1657 µmol and 18.7818 µmol
- percent drug eluted from DC Bead LUMI ([4]; 360 min): 6.559% and 5.753% and 6.275%
- drug eluted from DC Bead LUMI ([4]; 360 min): 22.5859 µmol and 20.5327 µmol and 22.0468 µmol
- percent drug eluted from DC Bead LUMI ([4]; 420 min): 6.666% and 5.904% and 7.0124%
- drug eluted from DC Bead LUMI ([4]; 420 min): 22.954 µmol and 21.073 µmol and 24.6387 µmol
- percent drug eluted from DC Bead LUMI ([4]; 480 min): 7.32% and 7.2% and 7.286%
- drug eluted from DC Bead LUMI ([4]; 480 min): 25.2083 µmol and 25.6984 µmol and 25.5995 µmol
- percent drug eluted from DC Bead LUMI ([4]; 1440 min): 11.7204% and 10.5374% and 10.9377%
- drug eluted from DC Bead LUMI ([4]; 1440 min): 40.3605 µmol and 37.6096 µmol and 38.4305 µmol
- percent drug eluted from DC Bead LUMI ([4]; 2880 min): 14.9312% and 14.241% and 13.8435%
- drug eluted from DC Bead LUMI ([4]; 2880 min): 51.4172 µmol and 50.828 µmol and 48.6405 µmol
- percent drug eluted from DC Bead LUMI ([4]; 4320 min): 16.6252% and 15.679% and 15.9706%
- drug eluted from DC Bead LUMI ([4]; 4320 min): 57.2509 µmol and 55.9606 µmol and 56.1142 µmol
- percent drug eluted from DC Bead LUMI ([4]; 8640 min): 17.1401% and 16.2829% and 16.6995%
- drug eluted from DC Bead LUMI ([4]; 8640 min): 59.0238 µmol and 58.1158 µmol and 58.6753 µmol
- release behaviour in saline [4]: slow release; also recorded: prolonged release profile

SMILES: COc1cccc2c1C(=O)c1c(O)c3c(c(O)c1C2=O)C[C@@](O)(C(=O)CO)C[C@@H]3O[C@H]1C[C@H](N)[C@H](O)[C@H](C)O1 [Dox, doxorubicin hydrochloride]
- pH at which each drug dissolved for loading [1]: 4.2 (21.1)
- drug loaded above the predicted capacity of the bead ([2]; DC Bead LUMI): approximately 23%
- loading behaviour ([2]; DC Bead LUMI): slower loading
- equivalent of drug loaded to sulfonated bead ([2]; DC Bead LUMI): 0.35 ± 0.01 mM drug/ml beads
- Maximum drug loaded ([2]; DC Bead LUMI): 204.54 ± 3.87 mg drug/ml beads and 205 ± 4 mg drug/ml beads
- Maximum drug loaded ([2]; DC Bead LUMI, listed as Doxorubicin HCl): 204.54 ± 3.87 mg drug/ml beads
- Maximum drug loaded (Triplicate), % ([2]; DC Bead LUMI): 121.32% and 125.547% and 121.757%
- Drug: sulfonate ([2]; DC Bead LUMI): 1.228
- Theoretical maximum loading level based on SO3− contents [2]: 166.50 mg
- Theoretical maximum loading level based on SO3− contents ([2]; listed as Doxorubicin HCl): 166.5 mg
- previously reported amount of Dox loaded into LC Bead [5]: 39.0 ± 3.8 mg/mL
- drug eluted from DC Bead LUMI ([4]; 5 min): 0.8697 µmol and 0.7574 µmol and 0.6743 µmol
- drug eluted from DC Bead LUMI ([4]; 15 min): 0.9785 µmol and 0.9763 µmol and 0.879 µmol
- drug eluted from DC Bead LUMI ([4]; 30 min): 1.239 µmol and 1.282 µmol and 1.112 µmol
- drug eluted from DC Bead LUMI ([4]; 45 min): 1.546 µmol and 1.5359 µmol and 1.496 µmol
- drug eluted from DC Bead LUMI ([4]; 60 min): 1.899 µmol and 1.906 µmol and 1.678 µmol
- drug eluted from DC Bead LUMI ([4]; 120 min): 3.985 µmol and 3.46 µmol and 3.165 µmol
- drug eluted from DC Bead LUMI ([4]; 180 min): 6.141 µmol and 6.4405 µmol and 5.733 µmol
- drug eluted from DC Bead LUMI ([4]; 240 min): 7.976 µmol and 7.077 µmol and 7.054 µmol
- drug eluted from DC Bead LUMI ([4]; 300 min): 9.987 µmol and 9.178 µmol and 9.242 µmol
- drug eluted from DC Bead LUMI ([4]; 360 min): 12.6965 µmol and 11.2108 µmol and 10.9569 µmol
- drug eluted from DC Bead LUMI ([4]; 420 min): 14.5125 µmol and 12.8898 µmol and 12.4195 µmol
- drug eluted from DC Bead LUMI ([4]; 480 min): 16.4266 µmol and 14.4776 µmol and 14.2688 µmol
- drug eluted from DC Bead LUMI ([4]; 1440 min): 47.172 µmol and 44.3546 µmol and 42.6335 µmol
- drug eluted from DC Bead LUMI ([4]; 2880 min): 68.0842 µmol and 61.0855 µmol and 60.2496 µmol
- drug eluted from DC Bead LUMI ([4]; 4320 min): 76.8802 µmol and 71.2335 µmol and 68.2708 µmol
- drug eluted from DC Bead LUMI ([4]; 8640 min): 74.6523 µmol and 73.8043 µmol and 71.6405 µmol
- release behaviour in saline [4]: slow release
- Dox released from DC Bead LUMI ([4]; Figure 11 legend, mean ± SD, n = 3): 74.4 ± 0.5 µmol Dox/ mL DC Bead LUMI
- average amount of Dox loaded into 1 mL of LC Bead [6]: 33.58 ± 3.08 mg
- time to load drug to DC Bead LUMI [7]: 2 to 3 h
